Assay results as given in patent US20170334899A1, “AMINO-SUBSTITUTED ISOTHIAZOLES” (Bayer Pharma Aktiengesellschaft, priority 2014, published 2017).

Target: T1, catalytic domain of human Bub1 (amino acids 704-1085) (Homo sapiens, UniProt O43683)
T1 construct: catalytic domain of human Bub1 (amino acids 704-1085); His6 (N); made in house; host or cells: insect cells (Hi5)
Test: Bub1 kinase assay (TR-FRET)
Format: biochemical
Details: 10 μM ATP, avg, read-out: Bub1 avg (IC50 [mol/l])
Excerpt: Bub1-inhibitory activity of compounds of the present invention was quantified employing the Bub1 TR-FRET assay as described in the following paragraphs.
N-terminally His6-tagged recombinant catalytic domain of human Bub1 (amino acids 704-1085), expressed in insect cells (Hi5) and purified by Ni-NTA affinity chromatography and subsequent size exclusion chromatography, was used as enzyme. As substrate for the kinase reaction the biotinylated peptide biotin-Ahx-VLLPKKSFAEPG (C-terminus in amid form) was used which can be purchased e.g. form the company Biosyntan (Berlin, Germany).
For the assay 50 nl of a 100fold concentrated solution of the test compound in DMSO was pipetted into a black low volume 384well microtiter plate (Greiner Bio-One, Frickenhausen, Germany), 2 μl of a solution of Bub1 in aqueous assay buffer [50 mM Tris/HCl pH 7.5, 10 mM magnesium chloride (MgCl2), 200 mM potassium chloride (KCl), 1.0 mM dithiothreitol (DTT), 0.1 mM sodium ortho-vanadate, 1% (v/v) glycerol, 0.01% (w/v) bovine serum albumine (BSA), 0.005% (v/v) Trition X-100 (Sigma), 1× Complete EDTA-free protease inhibitor mixture (Roche)] were added and the mixture was incubated for 15 min at 22° C. to allow pre-binding of the test compounds to the enzyme before the start of the kinase reaction. Then the kinase reaction was started by the addition of 3 μl of a solution of adenosine-tri-phosphate (ATP, 16.7 μM=>final conc. in the 5 μl assay volume is 10 μM) and substrate (1.67 μM=>final conc. in the 5 μl assay volume is 1 μM) in assay buffer and the resulting mixture was incubated for a reaction time of 60 min at 22° C. The concentration of Bub1 was adjusted depending of the activity of the enzyme lot and was chosen appropriate to have the assay in the linear range, typical concentrations were in the range of 200 ng/ml. The reaction was stopped by the addition of 5 μl of a solution of TR-FRET detection reagents (0.2 μM streptavidine-XL665 [Cisbio Bioassays, Codolet, France] and 1 nM anti-phosho-Serine antibody [Merck Millipore, cat. #35-001] and 0.4 nM LANCE EU-W1024 labeled anti-mouse IgG antibody [Perkin-Elmer, product no. AD0077, as an alternative a Terbium-cryptate-labeled anti-mouse IgG antibody from Cisbio Bioassays can be used]) in an aqueous EDTA-solution (50 mM EDTA, 0.2% (w/v) bovine serum albumin in 100 mM HEPES pH 7.5).
The resulting mixture was incubated 1 h at 22° C. to allow the formation of complex between the phosphorylated biotinylated peptide and the detection reagents. Subsequently the amount of phosphorylated substrate was evaluated by measurement of the resonance energy transfer from the Eu-chelate to the streptavidine-XL. Therefore, the fluorescence emissions at 620 nm and 665 nm after excitation at 350 nm was measured in a TR-FRET reader, e.g. a Rubystar or Pherastar (both from BMG Labtechnologies, Offenburg, Germany) or a Viewlux (Perkin-Elmer). The ratio of the emissions at 665 nm and at […] was taken as the measure for the amount of phosphorylated substrate. The data were normalised (enzyme reaction without inhibitor=0% inhibition, all other assay components but no enzyme=100% inhibition).

T1 sequence (O43683 704-1085): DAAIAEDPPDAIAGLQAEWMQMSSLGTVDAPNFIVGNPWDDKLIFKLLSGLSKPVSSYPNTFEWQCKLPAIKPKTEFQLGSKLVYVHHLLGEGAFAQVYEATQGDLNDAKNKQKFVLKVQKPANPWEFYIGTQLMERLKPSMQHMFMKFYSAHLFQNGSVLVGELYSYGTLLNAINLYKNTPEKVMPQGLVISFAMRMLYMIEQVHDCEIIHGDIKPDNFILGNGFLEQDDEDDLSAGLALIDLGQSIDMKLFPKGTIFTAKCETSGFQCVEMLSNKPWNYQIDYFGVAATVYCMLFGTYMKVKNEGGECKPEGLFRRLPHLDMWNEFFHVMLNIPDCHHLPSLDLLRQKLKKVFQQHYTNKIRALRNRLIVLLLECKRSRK

Row | IC50 [µM] | SMILES
1 | > 20 | Cc1nsc(Nc2cnc3ccccc3n2)c1C(=O)Nc1ccc(N2CCOCC2)nc1 [Example 169, 3-methyl-N-[6-(morpholin-4-yl)pyridin-3-yl]-5-(quinoxalin-2-ylamino)-1,2-thiazole-4-carboxamide]
2 | > 20 | Cc1nsc(Nc2cnc(C(F)(F)F)cn2)c1C(=O)Nc1ccc(OC[C@H]2CCN(CC(F)F)C2)nc1 [Example 132, N-(6-{[(3S)-1-(2,2-difluoroethyl)pyrrolidin-3-yl]methoxy}pyridin-3-yl)-3-methyl-5-{[5-(trifluoromethyl)pyrazin-2-yl]amino}-1,2-thiazole-4-carboxamide]
3 | ≥ 20 | Cc1nsc(Nc2cnc(C(F)(F)F)cn2)c1C(=O)Nc1ccc(OC2CCNCC2)nc1 [Example 6, 3-Methyl-N-[6-(piperidin-4-yloxy)pyridin-3-yl]-5-{[5-(trifluoromethyl)pyrazin-2-yl]amino}-1,2-thiazole-4-carboxamide]
4 | > 20 | Cc1nsc(Nc2cnc(C(F)(F)F)cn2)c1C(=O)Nc1ccc(O[C@H]2CCN(CCC(F)(F)F)C[C@H]2F)nc1 [Example 146, N-(6-{[(3R,4S)-3-fluoro-1-(3,3,3-trifluoropropyl)piperidin-4-yl]oxy}pyridin-3-yl)-3-methyl-5-{[5-(trifluoromethyl)pyrazin-2-yl]amino}-1,2-thiazole-4-carboxamide]
5 | ≥ 20 | Cc1nsc(Nc2cc(C#N)ccn2)c1C(=O)Nc1cccc(C(=O)N2CCCC2)c1 [Example 114, 5-[(4-Cyanopyridin-2-yl)amino]-3-methyl-N-[3-(pyrrolidin-1-ylcarbonyl)phenyl]-1,2-thiazole-4-carboxamide]
6 | > 20 | Cc1nsc(Nc2cnc(C(F)(F)F)cn2)c1C(=O)Nc1ccc(OC2CCN(CC(F)F)CC2)c(F)c1 [Example 164, N-(4-{[1-(2,2-difluoroethyl)piperidin-4-yl]oxy}-3-fluorophenyl)-3-methyl-5-{[5-(trifluoromethyl)pyrazin-2-yl]amino}-1,2-thiazole-4-carboxamide]
7 | > 20 | Cc1nsc(Nc2cncc(C(F)(F)F)n2)c1C(=O)Nc1ccc(C(=O)NCCN2CCCC(F)C2)cc1 (centres unmarked) [Example 155, N-(4-{[2-(3-fluoropiperidin-1-yl)ethyl]carbamoyl}phenyl)-3-methyl-5-{[6-(trifluoromethyl)pyrazin-2-yl]amino}-1,2-thiazole-4-carboxamide]
8 | ≥ 20 | CCCCN1CC[C@@H](Oc2ccc(NC(=O)c3c(C)nsc3Nc3cnc(C(F)(F)F)cn3)cn2)[C@@H](F)C1 [Example 141, N-(6-{[(3S,4R)-1-butyl-3-fluoropiperidin-4-yl]oxy}pyridin-3-yl)-3-methyl-5-{[5-(trifluoromethyl)pyrazin-2-yl]amino}-1,2-thiazole-4-carboxamide]
9 | 19 | Cc1nsc(Nc2cnc3ccccc3n2)c1C(=O)Nc1cccc(C(=O)N2CCN(C)CC2)c1 [Example 102, 3-Methyl-N-{3-[(4-methylpiperazin-1-yl)carbonyl]phenyl}-5-(quinoxalin-2-ylamino)-1,2-thiazole-4-carboxamide]
10 | > 20 | Cc1nsc(Nc2cnc3ccccc3n2)c1C(=O)Nc1ccc(C(=O)N2CCN(CC(F)F)CC2)cc1 [Example 157, N-(4-{[4-(2,2-difluoroethyl)piperazin-1-yl]carbonyl}phenyl)-3-methyl-5-(quinoxalin-2-ylamino)-1,2-thiazole-4-carboxamide]

More lines, now with the values behind:

Row | SMILES | IC50 [µM]
11 | Cc1nsc(Nc2cnc(C(F)(F)F)cn2)c1C(=O)Nc1ccc(OCC2CCN(CC(F)(F)F)C2)nc1 (centres unmarked) [Example 123, 3-Methyl-N-(6-{[1-(2,2,2-trifluoroethyl)pyrrolidin-3-yl]methoxy}pyridin-3-yl)-5-{[5-(trifluoromethyl)pyrazin-2-yl]amino}-1,2-thiazole-4-carboxamide] | ≥ 20
12 | Cc1nsc(Nc2cnc(C(F)(F)F)cn2)c1C(=O)Nc1ccc(C(=O)N2CCN(CC(F)F)CC2)cc1 [Example 154, N-(4-{[4-(2,2-difluoroethyl)piperazin-1-yl]carbonyl}phenyl)-3-methyl-5-{[5-(trifluoromethyl)pyrazin-2-yl]amino}-1,2-thiazole-4-carboxamide] | > 20
13 | Cc1nsc(Nc2cnc3ccccc3n2)c1C(=O)Nc1cccc(C(=O)N[C@@H](CCC(N)=O)C(=O)O)c1 [Example 103, N^2-[3-({[3-Methyl-5-(quinoxalin-2-ylamino)-1,2-thiazol-4-yl]carbonyl}amino)-benzoyl]glutamine] | ≥ 20
14 | Cc1noc(-c2cccc(NC(=O)c3c(C)nsc3Nc3cnc4ccccc4n3)c2)n1 [Example 106, 3-Methyl-N-[3-(3-methyl-1,2,4-oxadiazol-5-yl)phenyl]-5-(quinoxalin-2-ylamino)-1,2-thiazole-4-carboxamide] | ≥ 20
15 | CC(=O)N(C)CCOc1ccc(NC(=O)c2c(C)nsc2Nc2nc3c(C(F)(F)F)cccc3s2)cn1 [Example 112, N-(6-{2-[Acetyl(methyl)amino]-ethoxy}pyridin-3-yl)-3-methyl-5-{[4-(trifluoromethyl)-1,3-benzothiazol-2-yl]amino}-1,2-thiazole-4-carboxamide] | ≥ 20
16 | Cc1nsc(Nc2cnc(C(F)(F)F)cn2)c1C(=O)Nc1ccc(OC2CCN(CCF)CC2)c(F)c1 [Example 162, N-(3-fluoro-4-{[1-(2-fluoroethyl)piperidin-4-yl]oxy}phenyl)-3-methyl-5-{[5-(trifluoromethyl)pyrazin-2-yl]amino}-1,2-thiazole-4-carboxamide] | > 20
17 | CC(=O)Nc1cc(NC(=O)c2c(C)nsc2Nc2ccc(C#N)cn2)ccc1F [Example 152, N-(3-acetamido-4-fluorophenyl)-5-[(5-cyanopyridin-2-yl)amino]-3-methyl-1,2-thiazole-4-carboxamide] | > 20
18 | Cc1nsc(Nc2cnc(C(F)(F)F)cn2)c1C(=O)Nc1ccc(O[C@@H]2CCN(CCC(F)(F)F)C[C@@H]2F)nc1 [Example 139, N-(6-{[(3S,4R)-3-fluoro-1-(3,3,3-trifluoropropyl)piperidin-4-yl]oxy}pyridin-3-yl)-3-methyl-5-{[5-(trifluoromethyl)pyrazin-2-yl]amino}-1,2-thiazole-4-carboxamide] | > 20
19 | Cc1nsc(Nc2cncc(C(F)(F)F)n2)c1C(=O)Nc1ccc(F)c(OC2CCN(C(=O)OC(C)(C)C)CC2)c1 [Example 168, tert-butyl 4-(2-fluoro-5-{[(3-methyl-5-{[6-(trifluoromethyl)pyrazin-2-yl]amino}-1,2-thiazol-4-yl)carbonyl]amino}phenoxy)piperidine-1-carboxylate] | > 20
20 | Cc1nsc(Nc2cnc(C(F)(F)F)cn2)c1C(=O)Nc1ccc(O[C@H]2CCN(CC(F)(F)F)C[C@H]2F)nc1 [Example 145, N-(6-{[(3R,4S)-3-fluoro-1-(2,2,2-trifluoroethyl)piperidin-4-yl]oxy}pyridin-3-yl)-3-methyl-5-{[5-(trifluoromethyl)pyrazin-2-yl]amino}-1,2-thiazole-4-carboxamide] | > 20
21 | CCCN1CC[C@@H](Oc2ccc(NC(=O)c3c(C)nsc3Nc3cnc(C(F)(F)F)cn3)cn2)[C@@H](F)C1 [Example 140, N-(6-{[(3S,4R)-3-fluoro-1-propylpiperidin-4-yl]oxy}pyridin-3-yl)-3-methyl-5-{[5-(trifluoromethyl)pyrazin-2-yl]amino}-1,2-thiazole-4-carboxamide] | > 20
22 | Cc1nsc(Nc2cnc3ccccc3n2)c1C(=O)Nc1cccc(C(=O)N2CCCC2)c1 [Example 113, 3-Methyl-N-[3-(pyrrolidin-1-ylcarbonyl)phenyl]-5-(quinoxalin-2-ylamino)-1,2-thiazole-4-carboxamide] | 18
23 | Cc1nsc(Nc2cnc(C(F)(F)F)cn2)c1C(=O)Nc1ccc(OC2CCN(CC(F)(F)F)CC2)c(F)c1 [Example 163, N-(3-fluoro-4-{[1-(2,2,2-trifluoroethyl)piperidin-4-yl]oxy}phenyl)-3-methyl-5-{[5-(trifluoromethyl)pyrazin-2-yl]amino}-1,2-thiazole-4-carboxamide] | > 20
